Experimental data from PMC10518257 (Nature Cancer, 2023).
Several values for one entry are separate records, joined by “and”; a condition that tells them apart may be missing. Equal entries are not always repeated. Where two headings read alike, the source gives them in different places.

Assays:
Ba/F3-CCDC6::RET = assay: Growth inhibition assay in Ba/F3 cells (CellTiter-Glo, 72 h); type: cell-based
Ba/F3-CCDC6::RET^S904F = assay: as above; type: cell-based
Ba/F3-RET^M918T = assay: as above; type: cell-based; conditions: Mus musculus, BaF3, 72 h, read-out: GI50 value (Mean ± SD), Ba/F3-RET^M918T, CellTiter-Glo, 72 h
[1] = system: Ba/F3 cells expressing KIF5B–RET^G810S; assay: as above; type: cell-based; conditions: Ba/3-KIF5B-RET-G810S; replicate Sets 1-3
TT cells (RET C634W) = assay: Dose-response western blotting, EC50 for inhibition of protein phosphorylation; type: cell-based; conditions: Homo sapiens
LUAD-0057BS1 cells = assay: Growth inhibition (alamarBlue, 96 h); type: cell-based, human; conditions: for raw viability signal (Source Data Fig. 3b-c): LUAD-0057BS1, replicate sets
LUAD-0002AS1 cells = assay: Growth inhibition (alamarBlue, 96 h); type: cell-based, human; conditions: for raw viability signal (Source Data Fig. 3b-c): LUAD-0002AS1, replicate sets
LUAD-0087AS2 cells = assay: Growth inhibition (alamarBlue, 96 h); type: cell-based, human; conditions: for raw viability signal (Source Data Fig. 3b-c): LUAD-0087AS2, replicate sets
ECLC5B cells = assay: Growth inhibition (alamarBlue, 96 h); type: cell-based, human; conditions: for raw viability signal (Source Data Fig. 3b-c): ECLC5B, replicates
TT cells = assay: Growth inhibition (alamarBlue, 96 h); type: cell-based, human; conditions: replicate sets
[2] = Homo sapiens, 96 h, read-out: IC50 for Inhibition of Growth (95% CI)

CO[C@]1(C(=O)N[C@@H](C)c2ccc(-n3cc(F)cn3)nc2)CC[C@H](c2nc(C)cc(Nc3cc(C)[nH]n3)n2)CC1 [Pralsetinib]
GI50 (Ba/F3-CCDC6::RET; BaF3/CCDC6-RET, 72 h, read-out: GI50 value (Mean ± SD), Ba/F3-CCDC6::RET, CellTiter-Glo, 72 h): 19.9 ± 10.6 nM | GI50 (Ba/F3-CCDC6::RET; read-out: GI50 values, Ba/F3-CCDC6::RET, individual sets (replicate experiments)): 11.8 nM and 31.9 nM and 15.9 nM | GI50 (Ba/F3-CCDC6::RET^S904F; BaF3/CCDC6-RET, read-out: GI50 values, Ba/F3-CCDC6::RET S904F, individual sets (replicate experiments)): 6.22 nM | GI50 (Ba/F3-CCDC6::RET^S904F; Mus musculus, BaF3, 72 h, read-out: GI50 value (Mean ± SD), Ba/F3-CCDC6::RET^S904F, CellTiter-Glo, 72 h): 6.02 ± 1.69 nM | GI50 (Ba/F3-CCDC6::RET^S904F; read-out: GI50 values, Ba/F3-CCDC6::RET S904F, individual sets (replicate experiments)): 7.61 nM and 4.24 nM | GI50 (Ba/F3-RET^M918T): 1.62 ± 0.77 nM | GI50 [1]: 26.2 nM and 86 nM and 39.5 nM | EC50 (TT cells (RET C634W); read-out: EC50 for Inhibition of Protein Phosphorylation (95% CI), AKT S473, 2 h, densitometry): 1.5 nM | EC50 (TT cells (RET C634W); read-out: EC50 for Inhibition of Protein Phosphorylation (95% CI), ERK1/2 T202/Y204, 2 h, densitometry): 2 nM | EC50 (TT cells (RET C634W); read-out: EC50 for Inhibition of Protein Phosphorylation (95% CI), MEK1/2 S217/S221, 2 h, densitometry): 4.3 nM | EC50 (TT cells (RET C634W); read-out: EC50 for Inhibition of Protein Phosphorylation (95% CI), P70 RSK T421/S424, 2 h, densitometry): 0.4 nM | EC50 (TT cells (RET C634W); read-out: EC50 for Inhibition of Protein Phosphorylation (95% CI), RET Y905, 2 h, densitometry): 1 nM | EC50 (TT cells (RET C634W); read-out: EC50 for Inhibition of Protein Phosphorylation (95% CI), S6RP S235/S236, 2 h, densitometry): 0.7 nM | IC50 (LUAD-0057BS1 cells; [2]): 36 nM | raw viability signal (Source Data Fig. 3b-c) (LUAD-0057BS1 cells; 0.01 nM): 16595.3 and 17181.3 and 21729.4 | raw viability signal (Source Data Fig. 3b-c) (LUAD-0057BS1 cells; 0.1 nM): 16479.6 and 19958 and 20455.1 | raw viability signal (Source Data Fig. 3b-c) (LUAD-0057BS1 cells; 1 nM): 16334.3 and 18804.2 and 20595.3 | raw viability signal (Source Data Fig. 3b-c) (LUAD-0057BS1 cells; 10 nM): 13376 and 14580.9 and 14292.2 | raw viability signal (Source Data Fig. 3b-c) (LUAD-0057BS1 cells; 100 nM): 5525.42 and 5782.49 and 4569.11 | raw viability signal (Source Data Fig. 3b-c) (LUAD-0057BS1 cells; 1000 nM): 1800.25 and 2058.52 and 1619.82 | raw viability signal (Source Data Fig. 3b-c) (LUAD-0057BS1 cells; 10000 nM): 968.48 and 1261.32 and 1236.21 | IC50 (LUAD-0002AS1 cells; [2]): 4 nM | raw viability signal (Source Data Fig. 3b-c) (LUAD-0002AS1 cells; 0.01 nM): 15231.7 and 11282.9 and 12487.7 | raw viability signal (Source Data Fig. 3b-c) (LUAD-0002AS1 cells; 0.1 nM): 13433.7 and 11365.6 and 12797.1 | raw viability signal (Source Data Fig. 3b-c) (LUAD-0002AS1 cells; 1 nM): 14274.6 and 7102.45 and 10515 | raw viability signal (Source Data Fig. 3b-c) (LUAD-0002AS1 cells; 10 nM): 5412.04 and 2878.75 and 4059.15 | raw viability signal (Source Data Fig. 3b-c) (LUAD-0002AS1 cells; 100 nM): 2211.78 and 2052.44 and 2966.29 | raw viability signal (Source Data Fig. 3b-c) (LUAD-0002AS1 cells; 1000 nM): 1138.02 and 1548.13 and 2436.62 | raw viability signal (Source Data Fig. 3b-c) (LUAD-0002AS1 cells; 10000 nM): 935.955 and 1429.45 and 2173.09 | IC50 (LUAD-0087AS2 cells; [2]): 24 nM | raw viability signal (Source Data Fig. 3b-c) (LUAD-0087AS2 cells; 0.01 nM): 10767.7 and 15151.6 and 17255.6 and 15692.7 | raw viability signal (Source Data Fig. 3b-c) (LUAD-0087AS2 cells; 0.1 nM): 11083.5 and 15670.9 and 15636 and 16225.5 | raw viability signal (Source Data Fig. 3b-c) (LUAD-0087AS2 cells; 1 nM): 10977.2 and 15832.3 and 16084.8 and 16863 | raw viability signal (Source Data Fig. 3b-c) (LUAD-0087AS2 cells; 10 nM): 7788.62 and 8365.43 and 13487.5 and 12530.5 | raw viability signal (Source Data Fig. 3b-c) (LUAD-0087AS2 cells; 100 nM): 2806.08 and 5716.79 and 2099.37 and 2602.78 | raw viability signal (Source Data Fig. 3b-c) (LUAD-0087AS2 cells; 1000 nM): 2132.43 and 5081.65 and 1620.29 and 1608.1 | raw viability signal (Source Data Fig. 3b-c) (LUAD-0087AS2 cells; 10000 nM): 2211.28 and 4121.33 and 1386.59 and 1376.18 | raw viability signal (Source Data Fig. 3b-c) (ECLC5B cells; 0.01 nM): 11159.3 and 6334.79 and 21867.4 | raw viability signal (Source Data Fig. 3b-c) (ECLC5B cells; 0.1 nM): 11498.4 and 7246.25 and 22158.4 | raw viability signal (Source Data Fig. 3b-c) (ECLC5B cells; 1 nM): 11273.5 and 6357.98 and 19717.2 | raw viability signal (Source Data Fig. 3b-c) (ECLC5B cells; 10 nM): 5160.26 and 1378.73 and 8133.57 | raw viability signal (Source Data Fig. 3b-c) (ECLC5B cells; 100 nM): 2920.41 and 1318.47 and 4448.62 | raw viability signal (Source Data Fig. 3b-c) (ECLC5B cells; 1000 nM): 1849.04 and 1272.17 and 3256.96 | raw viability signal (Source Data Fig. 3b-c) (ECLC5B cells; 10000 nM): 1438.61 and 1223.5 and 2843.35 | IC50 (ECLC5B cells; [2]): 6 nM | raw viability signal (Source Data Fig. 3b-c) (TT cells; 0.01 nM): 22929.2 and 25490.7 and 28433.6 and 13300.2 and 25151.2 | raw viability signal (Source Data Fig. 3b-c) (TT cells; 0.1 nM): 22974.2 and 25164.4 and 33337.3 and 15066.6 and 24111.4 | raw viability signal (Source Data Fig. 3b-c) (TT cells; 1 nM): 21557.9 and 25049.8 and 31833.5 and 13551.8 and 21692.4 | raw viability signal (Source Data Fig. 3b-c) (TT cells; 10 nM): 15259.3 and 23182.3 and 22444.5 and 12016.9 and 18286.5 | raw viability signal (Source Data Fig. 3b-c) (TT cells; 100 nM): 9067.36 and 11673.9 and 13386.9 and 6206.3 and 13339.4 | raw viability signal (Source Data Fig. 3b-c) (TT cells; 1000 nM): 7976.19 and 8542.52 and 11087 and 4402.24 and 11387.8
